Data reported in patent US20240018157A1, “CYCLIC COMPOUNDS AND METHODS OF USING SAME” (Schrödinger, Inc., priority 2019, published 2024).

System: IL10 secretion, OCI-LY10 cells
Experiment: Human IL10 secretion assay, Assay 1 (HTRF)
Format: cell-based
Conditions: 24 h incubation, read-out: IL-10 Secretion IC50 [nM] Assay 1
Procedure: IL10 is one of the cytokines that are regulated via activation of NF-kB signaling. For example, in ABC-DLBCL cell lines, the activated NF-kB signaling leads to increased IL10 secretion. Inhibition of NF-kB signaling has been shown leading to decreased IL10 secretion.
Assay 1: OCI-LY10 cells were seeded in IMEM supplemented with 20% fetal bovine serum at 3×10^5 cells per well in 96-well round bottom plates (Corning 3799, Corning), treated with 100 nL of 3-fold serial compound dilutions, starting at 10 mM. The final vehicle concentration was 0.1% DMSO in all wells. After 24 h incubation, the cells were transferred to 96-PCR plates (Axygen: PCR-96-FLT-C) and centrifuged, then 16 μL of cell culture media was transferred to HTRF plates and IL10 levels were measured using human IL-10 Assay Kits (Cisbio) using HTRF format. The signals were transformed to percentage of remaining activity by using the high control (HC, median of signal from wells containing cells treated with DMSO) and low control (LC, median of signal from wells with no cells). IC50 values (nM) were determined using 4-parametric curve-fitting and Hill coefficient were obtained using Graph Pad Prism (Graph Pad software, Inc, USA) with non-linear regression analysis.

| IC50 [nM] | Compound |
| --- | --- |
| 10 to 100 | COc1ncc(NC(=O)N2C[C@@](C)(C(F)(F)F)c3c2cnc2cc(Cl)nn32)cc1Cl [compound 18, (R)-2-chloro-N-(5-chloro-6-methoxypyridin-3-yl)-8-methyl-8-(trifluoromethyl)-7,8-dihydro-6H-pyrazolo[1,5-a]pyrrolo[2,3-e]pyrimidine-6-carboxamide] |
| 10 to 100 | C[C@@]1(C(F)(F)F)CN(C(=O)Nc2ccnc(C(F)(F)F)c2)c2cnc3cc(Cl)nn3c21 [compound 27, (R)-2-chloro-8-methyl-8-(trifluoromethyl)-N-(2-(trifluoromethyl)pyridin-4-yl)-7,8-dihydro-6H-pyrazolo[1,5-a]pyrrolo[2,3-e]pyrimidine-6-carboxamide] |
| 10 to 100 | COc1c(Cl)cc(NC(=O)N2C[C@@](C)(C(F)(F)F)c3c2cnc2cc(Cl)nn32)nc1O[C@H]1CCNC1 [compound 63, (R)-2-chloro-N-(4-chloro-5-methoxy-6-(((S)-pyrrolidin-3-yl)oxy)pyridin-2-yl)-8-methyl-8-(trifluoromethyl)-7,8-dihydro-6H-pyrazolo[1,5-a]pyrrolo[2,3-e]pyrimidine-6-carboxamide] |
| 10 to 100 | CC1(C)CCN(C(=O)Nc2cnc(-n3nccn3)c(Cl)c2)c2cnc3cc(Cl)nn3c21 [compound 7, 2-chloro-N-(5-chloro-6-(2H-1,2,3-triazol-2-yl)pyridin-3-yl)-9,9-dimethyl-8,9-dihydropyrazolo[1,5-a]pyrido[2,3-e]pyrimidine-6(7H)-carboxamide] |
| 100 to 1000 | COc1cnc(C(F)(F)F)cc1NC(=O)N1C[C@@](C)(C(F)(F)F)c2c1cnc1cc(Cl)nn21 [compound 66, (R)-2-chloro-N-(5-methoxy-2-(trifluoromethyl)pyridin-4-yl)-8-methyl-8-(trifluoromethyl)-7,8-dihydro-6H-pyrazolo[1,5-a]pyrrolo[2,3-e]pyrimidine-6-carboxamide] |
| 100 to 1000 | COc1ccc(NC(=O)N2C[C@@](C)(C(F)(F)F)c3c2cnc2cc(Cl)nn32)cc1Cl [compound 19, (R)-2-chloro-N-(3-chloro-4-methoxyphenyl)-8-methyl-8-(trifluoromethyl)-7,8-dihydro-6H-pyrazolo[1,5-a]pyrrolo[2,3-e]pyrimidine-6-carboxamide] |

Further lines, the compound ahead of its results:

| Compound | IC50 [nM] |
| --- | --- |
| Cc1cc2ncc3c(n2n1)C(C(F)(F)F)CCN3C(=O)Nc1cnc(-n2nccn2)c(Cl)c1 (centres unmarked) [compound 10, N-(5-chloro-6-(2H-1,2,3-triazol-2-yl)pyridin-3-yl)-2-methyl-9-(trifluoromethyl)-8,9-dihydropyrazolo[1,5-a]pyrido[2,3-e]pyrimidine-6(7H)-carboxamide] | 100 to 1000 |
| C[C@@]1(C(F)(F)F)CN(C(=O)Nc2cnc(-n3cc(CO)cn3)c(Cl)c2)c2cnc3cc(Cl)nn3c21 [compound 57, (R)-2-chloro-N-(5-chloro-6-(4-(hydroxymethyl)-1H-pyrazol-1-yl)pyridin-3-yl)-8-methyl-8-(trifluoromethyl)-7,8-dihydro-6H-pyrazolo[1,5-a]pyrrolo[2,3-e]pyrimidine-6-carboxamide] | 10 to 100 |
| COCc1cnn(-c2ncc(NC(=O)N3C[C@@](C)(C(F)(F)F)c4c3cnc3cc(Cl)nn43)cc2Cl)n1 [compound 79, (R)-2-chloro-N-(5-chloro-6-(4-(methoxymethyl)-2H-1,2,3-triazol-2-yl)pyridin-3-yl)-8-methyl-8-(trifluoromethyl)-7,8-dihydro-6H-pyrazolo[1,5-a]pyrrolo[2,3-e]pyrimidine-6-carboxamide] | 10 to 100 |
| C[C@@]1(C(F)(F)F)CN(C(=O)Nc2ccnc(C(F)F)c2)c2cnc3cc(Cl)nn3c21 [compound 60, (R)-2-chloro-N-(2-(difluoromethyl)pyridin-4-yl)-8-methyl-8-(trifluoromethyl)-7,8-dihydro-6H-pyrazolo[1,5-a]pyrrolo[2,3-e]pyrimidine-6-carboxamide] | 10 to 100 |
| C[C@@]1(C(F)(F)F)CN(C(=O)Nc2cnc(-n3ccnn3)c(C(F)(F)F)c2)c2cnc3cc(Cl)nn3c21 [compound 44, (R)-N-(6-(1H-1,2,3-triazol-1-yl)-5-(trifluoromethyl)pyridin-3-yl)-2-chloro-8-methyl-8-(trifluoromethyl)-7,8-dihydro-6H-pyrazolo[1,5-a]pyrrolo[2,3-e]pyrimidine-6-carboxamide] | 10 to 100 |
| C[C@@]1(C(F)(F)F)CN(C(=O)Nc2cc(N=S(C)(C)=O)nc(C(F)(F)F)c2)c2cnc3cc(Cl)nn3c21 [compound 83] | 100 to 1000 |
| C[C@@]1(C(F)(F)F)CN(C(=O)Nc2cnc(-n3cc(O)cn3)c(Cl)c2)c2cnc3cc(Cl)nn3c21 [compound 48] | 10 to 100 |
| Cc1cc(NC(=O)N2C[C@@](C)(C(F)(F)F)c3c2cnc2cc(Cl)nn32)cnc1-n1nccn1 [compound 21, (R)-2-chloro-8-methyl-N-(5-methyl-6-(2H-1,2,3-triazol-2-yl)pyridin-3-yl)-8-(trifluoromethyl)-7,8-dihydro-6H-pyrazolo[1,5-a]pyrrolo[2,3-e]pyrimidine-6-carboxamide] | 10 to 100 |
| C[C@@]1(C(F)(F)F)CN(C(=O)Nc2cnc(-n3ccnn3)c(C(F)F)c2)c2cnc3cc(Cl)nn3c21 [compound 36, (R)-2-chloro-N-(5-(difluoromethyl)-6-(1H-1,2,3-triazol-1-yl)pyridin-3-yl)-8-methyl-8-(trifluoromethyl)-7,8-dihydro-6H-pyrazolo[1,5-a]pyrrolo[2,3-e]pyrimidine-6-carboxamide] | 10 to 100 |
| C[C@@]1(C(F)(F)F)CN(C(=O)Nc2cnc(-n3nccn3)c(C#N)c2)c2cnc3cc(Cl)nn3c21 [compound 41, (R)-2-chloro-N-(5-cyano-6-(2H-1,2,3-triazol-2-yl)pyridin-3-yl)-8-methyl-8-(trifluoromethyl)-7,8-dihydro-6H-pyrazolo[1,5-a]pyrrolo[2,3-e]pyrimidine-6-carboxamide] | 10 to 100 |
| C[C@@]1(C(F)(F)F)CN(C(=O)Nc2cnc(N=S(C)(C)=O)c(Cl)c2)c2cnc3cc(Cl)nn3c21 [compound 85] | 100 to 1000 |

Target: full-length MALT1 protein His-MALT1(1-824) (Homo sapiens (Human), UniProt Q9UDY8)
Experiment: MALT1 protease assay, Assay 2 (1 nM MALT1, Ac-LRSR-AMC substrate)
Format: biochemical
Conditions: 1 nM MALT1, 50 μM Ac-LRSR-AMC, 2 h pre-incubation, 8 hr incubation at RT
Procedure: MALT1 protease activity was assessed in an in vitro assay using a tetrapeptide as substrate and full-length MALT1 protein His-MALT1(1-824) purified from baculovirus-infected insect cells.
The final assay buffer includes 1 nM (Assay 2) or 2 nM (Assay 1) of MALT1 full-length protein, 50 μM Ac-LRSR-AMC substrate, 50 mM Tris pH 7.5, 600 mM Sodium Citrate, 1 mM DTT, 1 mM EDTA, and 0.05% BSA in 384-well plate format using black microtiter square well plates (Optiplate 384-F, Perkin Elmer).
Test compounds were dissolved in 100% DMSO at stock of 10 mM, with final DMSO concentration 0.1%. Test compounds were pre-incubated with MALT1 protein for 2 h at room temperature. Substrate was added after the pre-incubation and fluorescence signal was measured using Envision at excitation 355 nm and emission 460 nm after 8 hr incubation at RT.
The fluorescence units were transformed to percentage of remaining activity by using the high control (HC, median of fluorescence signal from wells containing MALT1 protein, substrate, and DMSO) and low control (LC, median of fluorescence signal from wells with substrate only) with the formula below: […]
IC50 and Hill coefficient were obtained using Graph Pad Prism (Graph Pad software, Inc, USA) with non-linear regression analysis.

Sequence of full-length MALT1 protein His-MALT1(1-824) (Q9UDY8 whole entry): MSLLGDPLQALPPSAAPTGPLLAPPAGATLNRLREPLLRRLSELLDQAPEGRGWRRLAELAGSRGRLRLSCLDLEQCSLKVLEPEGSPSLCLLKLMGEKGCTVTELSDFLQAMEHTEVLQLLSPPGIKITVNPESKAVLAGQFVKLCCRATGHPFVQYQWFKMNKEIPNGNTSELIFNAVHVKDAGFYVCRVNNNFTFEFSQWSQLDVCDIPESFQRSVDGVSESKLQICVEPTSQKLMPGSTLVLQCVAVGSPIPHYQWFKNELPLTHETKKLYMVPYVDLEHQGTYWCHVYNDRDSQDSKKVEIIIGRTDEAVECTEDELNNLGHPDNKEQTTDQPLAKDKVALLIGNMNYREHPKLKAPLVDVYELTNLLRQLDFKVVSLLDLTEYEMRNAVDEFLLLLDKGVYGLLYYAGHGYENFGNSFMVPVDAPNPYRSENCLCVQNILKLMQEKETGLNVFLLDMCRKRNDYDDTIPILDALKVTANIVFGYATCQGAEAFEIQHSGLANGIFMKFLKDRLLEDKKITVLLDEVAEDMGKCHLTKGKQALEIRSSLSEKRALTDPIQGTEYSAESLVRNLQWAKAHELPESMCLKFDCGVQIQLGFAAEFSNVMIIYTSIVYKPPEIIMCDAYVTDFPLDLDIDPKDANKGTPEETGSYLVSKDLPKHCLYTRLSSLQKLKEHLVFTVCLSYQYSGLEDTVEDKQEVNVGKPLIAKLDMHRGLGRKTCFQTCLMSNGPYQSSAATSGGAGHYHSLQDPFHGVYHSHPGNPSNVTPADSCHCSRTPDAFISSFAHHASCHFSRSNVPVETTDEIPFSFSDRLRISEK

| IC50 [nM] | Compound |
| --- | --- |
| 10 to 100 | C[C@]1(C(F)(F)F)CN(C(=O)Nc2cnc(-n3nccn3)c(C#N)c2)c2cnc3cc(F)nn3c21 [compound 90, (S)-N-(5-cyano-6-(2H-1,2,3-triazol-2-yl)pyridin-3-yl)-2-fluoro-8-methyl-8-(trifluoromethyl)-7,8-dihydro-6H-pyrazolo[1,5-a]pyrrolo[2,3-e]pyrimidine-6-carboxamide] |
| 100 to 1000 | C[C@@]1(C(F)(F)F)CN(C(=O)Nc2cc(C(F)F)on2)c2cnc3cc(Cl)nn3c21 [compound 102, (R)-2-chloro-N-(5-(difluoromethyl)isoxazol-3-yl)-8-methyl-8-(trifluoromethyl)-7,8-dihydro-6H-pyrazolo[1,5-a]pyrrolo[2,3-e]pyrimidine-6-carboxamide] |
| 10 to 100 | CN1CC[C@H](Oc2cc(OC(F)F)cc(NC(=O)N3C[C@@](C)(C(F)(F)F)c4c3cnc3cc(Cl)nn43)n2)C1 [compound 198, (R)-2-chloro-N-(4-(difluoromethoxy)-6-(((S)-1-methylpyrrolidin-3-yl)oxy)pyridin-2-yl)-8-methyl-8-(trifluoromethyl)-7,8-dihydro-6H-pyrazolo[1,5-a]pyrrolo[2,3-e]pyrimidine-6-carboxamide] |

Second part, the compound before the results:

| Compound | IC50 [nM] |
| --- | --- |
| CN1CC(Oc2cc(NC(=O)N3C[C@@](C)(C(F)(F)F)c4c3cnc3cc(Cl)nn43)cc(C(F)F)n2)C1 [compound 130, (R)-2-chloro-N-(2-(difluoromethyl)-6-((1-methylazetidin-3-yl)oxy)pyridin-4-yl)-8-methyl-8-(trifluoromethyl)-7,8-dihydro-6H-pyrazolo[1,5-a]pyrrolo[2,3-e]pyrimidine-6-carboxamide] | 100 to 1000 |
| Cn1cc(NC(=O)N2C[C@@](C)(C(F)(F)F)c3c2cnc2cc(Cl)nn32)cn1 [compound 164, (R)-2-chloro-8-methyl-N-(1-methyl-1H-pyrazol-4-yl)-8-(trifluoromethyl)-7,8-dihydro-6H-pyrazolo[1,5-a]pyrrolo[2,3-e]pyrimidine-6-carboxamide] | 100 to 1000 |
| C[C@@]1(C(F)(F)F)CN(C(=O)Nc2cc(NC3COC3)nc(C(F)(F)F)c2)c2cnc3cc(Cl)nn3c21 [compound 99, (R)-2-chloro-8-methyl-N-(2-(oxetan-3-ylamino)-6-(trifluoromethyl)pyridin-4-yl)-8-(trifluoromethyl)-7,8-dihydro-6H-pyrazolo[1,5-a]pyrrolo[2,3-e]pyrimidine-6-carboxamide] | 100 to 1000 |
